Experimental data as given in patent publication US5587390A, “Imidazole derivatives having a II antagonist activity” (Istituto Luso Farmaco D'Italia S.p.A., priority 1992, dated 1996).

Legend:
[1] = system: A II-induced pressory response; assay: inhibition of the A II-induced pressory response in the ganglio-blocked normotensive rat (in vivo); settings: iv
Text: (§1) For the characterization and the evaluation of the effectiveness of the compounds of the invention, in vitro tests (such as the inhibition of the A II-induced contraction in the rabbit aorta and the displacement of ^125 I-Sar^1 -Ile^8 -AT II or [H^3 ] AT II in the rat adrenal cortex) and an in vivo test (the inhibition of the A II-induced pressory response in the ganglio-blocked normotensive rat) were selected.

[2] = biological target: T1, A II-induced contraction in the rabbit aorta (Oryctolagus cuniculus, UniProt P34976); assay: inhibition of the A II-induced contraction in the rabbit aorta (in vitro); type: cell-based; settings: read-out: pA2 (converted)
T1 construct: A II-induced contraction in the rabbit aorta; from tissue; host or cells: rabbit aorta
T1 sequence (P34976 1-359): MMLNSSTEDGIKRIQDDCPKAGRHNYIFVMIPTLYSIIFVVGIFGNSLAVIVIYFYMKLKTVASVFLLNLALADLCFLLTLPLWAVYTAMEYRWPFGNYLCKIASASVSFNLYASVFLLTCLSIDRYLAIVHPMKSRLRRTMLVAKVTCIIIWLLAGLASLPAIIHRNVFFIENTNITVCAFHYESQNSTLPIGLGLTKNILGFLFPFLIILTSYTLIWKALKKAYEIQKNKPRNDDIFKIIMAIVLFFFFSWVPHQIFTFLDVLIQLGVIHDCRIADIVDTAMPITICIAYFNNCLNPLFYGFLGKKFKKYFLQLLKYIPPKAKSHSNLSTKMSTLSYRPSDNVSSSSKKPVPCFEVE
Text: as §1

A II receptor = assay: receptor binding test: displacement of 125I-Sar1-Ile8-AT II or [H3] AT II in the rat adrenal cortex
Text: The compounds described in the present invention act as antagonists at the A II receptor level.
as §1

Structure (SMILES)	ED50 [1] [mg/kg]	Kb [2] [nM]	Ki (A II receptor) [nM]
CCCCc1nc(-c2ccccc2C(=O)O)cn1Cc1ccc(-c2ccccc2-c2nnn[nH]2)cc1 [Example 10, 2-Butyl-4-(2-carboxyphenyl)-1-[[2'-(tetrazol-5-yl) -biphenyl-4-yl]methyl]-1H-imidazole]	0.52	10	
CCCCc1nc(-c2cccc[n+]2[O-])cn1Cc1ccc(-c2ccccc2-c2nn[nH]n2)cc1 [Example 10e, 2-butyl-4-(pyridin-2-yl-N-oxide)-1-[[2'-(tetrazol-5-yl)biphenyl-4-yl]methyl]-1H-imidazole]	0.54		6.5
